We go through one compound from patent US20190015385A1, “VITAMIN E PHOSPHATE OR ACETATE FOR USE IN THE TREATMENT AND PREVENTION OF BIOFILM INFECTIONS” (priority 2016, published 2019).

One assay relates to Candida albicans. The assay is described as follows: Anti-biofilm activity, crystal violet spectrophotometric assay (Example 1). Type of assay: cell-based. The conditions noted are these: C. albicans. As for the experimental part:
(§1) The bacterial biofilm was formed in a sterile 96-well polystyrene plate. In short, a microbial suspension was prepared at an optical density of 0.5 McFarland for each strain. 20 μl of microbial suspension were added to each well containing 180 μl of VitE at various concentrations. Positive controls were performed by inoculating the bacteria in BHI+HA. Following incubation for 24 h at 37° C., the broth was removed, together with non-adherent microorganisms, and 200 μl of broth were added once again. The plates were incubated at 37° C. for another 48 h, until a mature biofilm was obtained.
(§2) The amount of biofilm was determined by means of a spectrophotometric assay, adopting the method developed by Christensen et al. (1985). At the end of the incubation period, the culture medium was removed and the wells covered by the biofilm were washed twice with a sterile saline solution and then dried. The biofilm was stained with 200 μl of a 5% crystal violet solution for 10 minutes. After staining, the wells were washed with a sterile saline solution to remove excess stain and left to dry completely. Lastly, 200 μl of 96% ethanol were added to each well to re-solubilize the stain included in the biofilm. Absorbance of the crystal violet was measured at 595 nm using a microplate reader. The assay was conducted in triplicate for each bacterial strain and repeated twice.

The subject of another assay is Escherichia coli. Described as above. Type of assay: cell-based. The conditions noted are these: E. coli. As for the experimental part: as §1, §2
Assay [1] has as its system Pseudomonas aeruginosa. The description is as above. Type of assay: cell-based. The conditions noted are these: P. aeruginosa. As for the experimental part:
as §1, §2

In another assay the test system is Staphylococcus aureus. The description is as above. The conditions noted are these: S. aureus. The class given is cell-based. As to the method: as §1, §2
In assay [2] the test system is Staphylococcus epidermidis. The description is as above. The class given is cell-based. Conditions: S. epidermidis. As for the experimental part: as §1, §2
For assay [3], the system named is Pseudomonas aeruginosa. The assay is described as follows: Biofilm on coated titanium disks, CFU count (Example 2). Type of assay: cell-based. The conditions noted are these: P. aeruginosa, vitamin E acetate 5 mg/cm^2, methylene blue 20 μg/cm^2. The text has this:
(§3) This study used clinically relevant strains isolated from patients with prosthetic joint infections at the Microbiology Laboratory of the IRCCS Galeazzi Orthopaedic Institute (Italy). In particular, the following were selected: a strain of methicillin-resistant Staphylococcus epidermidis, a strain of methicillin-resistant Staphylococcus aureus and a strain of Pseudomonas aeruginosa. These strains were identified beforehand by means of biochemical assays (VITEK® 2 Compact, bioMérieux, Marcy l'Etoile, France) and stored at −80° C. prior to the analysis. Before beginning the study, all strains underwent testing to assess their ability to produce biofilms according to the spectrophotometric assay described by Christensen et al. (J Clin Microbiol 1985; 22: 996-1006).
(§4) Sterile disks of sandblasted titanium with a diameter of 25 mm and a thickness of 5 mm (Adler Ortho, Cormano, Italy) were used as the substrate for the formation of biofilms. The disks were coated with sub-inhibitory concentrations of vitamin E acetate (5 mg/cm^2) or vitamin E acetate with the addition of methylene blue (20 μg/cm^2). […] Uncoated disks were used as negative controls. Subsequently, an overnight bacteria culture was resuspended in Brain Heart Infusion Broth (BHI; Biomérieux) at a density of 1.5×10^8 CFU/ml for each strain, and 200 microliters of microbial suspension were inoculated in sterile polystyrene plates with 6 wells containing coated and uncoated disks and 4.8 ml of BHI. The plates were incubated at 37° C. in an aerobic atmosphere for 24 and 48 hours. The test was performed in triplicate for each strain.
(§5) Upon completion of the biofilm incubation time, the disks were washed twice with a sterile saline solution to eliminate non-adherent bacteria. The disks were then immersed in 5 ml of a 0.1 w/v % dithiothreitol solution (DTT, Sigma-Aldrich, Milan, Italy) and mechanically stirred for 15 minutes at room temperature. Suitable dilutions of the fluids obtained were inoculated on Tryptic Soy Agar (TSA, Merck) and incubated at 37° C. in an aerobic atmosphere for 24 hours for the CFU count.

The test system of assay [4] is methicillin-resistant Staphylococcus aureus. The description is as above. Type of assay: cell-based. Conditions: S. aureus, vitamin E acetate 5 mg/cm^2, methylene blue 20 μg/cm^2.
Source text: as §3, §4, §5

Assay [5] has as its system methicillin-resistant Staphylococcus epidermidis. The description is as above. The class given is cell-based. The conditions noted are these: S. epidermidis, vitamin E acetate 5 mg/cm^2, methylene blue 20 μg/cm^2.
Source text: as §3, §4, §5

In a further assay the test system is S. aureus. The assay is described as follows: Anti-adhesion activity on coated titanium disks, CFU count (Example 3). Conditions: 5 mg/cm^2 coating, 30, 60 and 120 minutes. The class given is cell-based, Staphylococcus aureus. As for the experimental part: (§6) Sterile disks of sandblasted titanium with a diameter of 25 mm and a thickness of 5 mm (Adler Ortho, Cormano, Italy) were used as the substrate for the formation of biofilms. The disks were coated with sub-inhibitory concentrations of vitamin E acetate (5 mg/cm^2) or vitamin E phosphate (5 mg/cm^2). The concentrations were selected based on the MIC results. Uncoated disks were used as negative controls. The anti-adhesion activity of vitamin E was assessed against a representative strain for each species. An overnight bacteria culture was resuspended in Brain Heart Infusion Broth (BHI; Biomérieux) at a density of 1.0×10^7 CFU/ml for each strain, and 400 microliters of microbial suspension were inoculated on coated and uncoated disks. The test was performed in triplicate for each strain. After 30, 60 and 120 minutes of incubation, the disks were washed twice with a sterile saline solution to eliminate non-adherent bacteria. The disks were then immersed in 5 ml of a 0.1 w/v % dithiothreitol solution (DTT, Sigma-Aldrich, Milan, Italy) and mechanically stirred for 15 minutes at room temperature. Suitable dilutions of the fluids obtained were inoculated on Tryptic Soy Agar (TSA, Merck) and incubated at 37° C. in an aerobic atmosphere for 24 hours for the CFU count.

A further assay relates to S. epidermidis. The assay is described as above. Type of assay: cell-based, Staphylococcus epidermidis. Conditions: 5 mg/cm^2 coating, 30, 60 and 120 minutes. As for the experimental part:
as §6

For the compound `CC(=O)Oc1c(C)c(C)c2c(c1C)CCC(C)(CCC[C@H](C)CCC[C@H](C)CCCC(C)C)O2` (stereo partly drawn) [Vitamin E acetate, α-tocopherol acetate], the “reduction of microbial biofilm with respect to the control” value in the assay with Candida albicans (2.5% VitE in HA carrier) amounted to 24%; with Candida albicans (5% VitE in HA carrier), 37%; in the assay with Escherichia coli (2.5% VitE in HA carrier), 18%; with Escherichia coli (5% VitE in HA carrier), 38%; in the assay with Pseudomonas aeruginosa [1] (2.5% VitE in HA carrier) it was 24%; in the assay on Pseudomonas aeruginosa [1] (5% VitE in HA carrier) it was 39%. For the same compound, the “reduction of microbial biofilm with respect to the control” value in the assay on Staphylococcus aureus (2.5% VitE in HA carrier) is reported as 63%; with Staphylococcus aureus (5% VitE in HA carrier), 79%; in [2] (2.5% VitE in HA carrier) it was 30%; in assay [2] (5% VitE in HA carrier) it was 46%. Further, the “biofilm reduction with respect to the controls (in words)” value was “not after 24 hours” in the assay with Pseudomonas aeruginosa [3] (24 hours); “effective after 48 hours” in the assay with Pseudomonas aeruginosa [3] (48 hours); “significant” in [4] (24 hours); “significant” in assay [4] (48 hours); “significant” in [5] (24 hours); “significant” in assay [5] (48 hours). Besides, the “decrease in adhesion (in words)” value with S. aureus and with S. epidermidis was “significant decrease” throughout.
